Test results reported in patent publication US20070015742A1, “Porphyrin derivatives” (priority 2003, published 2007).
Read-outs that look alike come from different tables or passages of the source.

Tests used:
[1] = test system: mouse colon adenocarcinoma cell line Colo26; details: colo26 cells; for cell kill on irradiation: irradiation with 100 J cm^-2 white light; for photodynamic activity: 100 J cm^-2 white light
Procedure: Evaluation of in vitro Photodvnamic Tumour Cell Kill
The non-metastasing mouse colon adenocarcinoma cell line Colo26 was maintained in monolayer culture in RPMI 1640 glutamax medium supplemented with 10% heat-inactivated foetal calf serum, 100 U ml^−1 penicillin and 100 mg ml^−1 streptomycin. Cells grown to confluence were separated by trypsinisation to produce a suspension of 1.39 million cells per ml. A sample of 2.16 ml of this cell suspension was diluted to 50 ml with CM10 medium to give suspensions of 60,000 cells per ml. 100 μl of this suspension containing 6000 cells was added to each of the 60 inner wells of two 96-well culture plates. The outer wells of each plate were filled with sterile water. This was done to avoid errors resulting from the loss by evaporation of the rather small volumes of cell culture medium. The cells were incubated at 37° C. and 5% CO2 in a humidified incubator for 24 hours. A further 100 μl of cell culture medium containing a range of concentrations of each photosensitiser and tetrahydoflran (THF) vehicle was then added to groups of six wells. Tetrahydrofuran was chosen as solvent because it is relatively freely miscible with water and a pilot experiment had shown that incubation of cells for 48 hours with 0.5-1% THF had no effect on cell growth. An initial stock solution of 200 μl of each photosensitiser in THF was prepared and this solution used to prepare a series of sub-stock solutions in cell culture medium CM10 for addition to the tumour cell cultures.
After 20 hours of incubation with the cells, the medium containing the sensitiser and vehicle was removed and the cells washed once with buffer solution at 37° C. before the addition of fresh cell culture medium without photosensitiser or vrhicle. One of the two cell culture plates was then protected from light with aluminium foil and placed alongside the other plate which was irradiated with 100 joules cm^−2 of full-spectrum white light from an Applied Photophysics Irradiator. The light was delivered to the base of the 96-well plate through a glass platform (which served to filter short-wavelength ultraviolet light) as a 20 cm diameter spot. After irradiation both plates were returned to the incubator for a further 18 hours.
Cell growth inhibition following incubation with each photosensitiser and irradiation was determined using the European Union approved Neutral Red photocyiotoxicity protocol (Annexe II to Directive 2000/33/EC) adapted for visible light irradiation and the use of colo26 cells.

[2] = molar extinction spectrum in THF; assay type: physicochemical
Excerpt: The absorbance peaks and molar extinction coefficients are shown below in Table 2.
The Absorbance peaks and molar extinction coefficients are shown below in Table 3.
The absorbance peaks and molar extinction coefficients are shown below in Table 4.

[3] = in toluene, reference standard whose quantum yield is known; cited from earlier work
[4] = concentrations of 0.5 μM and above

Row | molar extinction coefficient ε ([2]; peak wavelength 418, THF) | molar extinction coefficient ε ([2]; peak wavelength 502, THF) | molar extinction coefficient ε ([2]; peak wavelength 532, THF) | molar extinction coefficient ε ([2]; peak wavelength 606, THF) | molar extinction coefficient ε ([2]; peak wavelength 668, THF) | molar extinction coefficient ε ([2]; peak wavelength 456, THF) | molar extinction coefficient ε ([2]; peak wavelength 537, THF) | molar extinction coefficient ε ([2]; peak wavelength 589, THF) | molar extinction coefficient ε ([2]; peak wavelength 659, THF) | molar extinction coefficient ε ([2]; peak wavelength 708, THF) | molar extinction coefficient ε ([2]; peak wavelength 724, THF) | Structure (SMILES) | cell kill on irradiation ([1]; 2 μM and above) | photodynamic activity [1] | cell kill on irradiation [1, 4] | singlet oxygen quantum yield of reference [3]
1 | 300,000 1 mol^−1 cm^−1 | 29,800 1 mol^−1 cm^−1 | 5,300 1 mol^−1 cm^−1 | 4,900 1 mol^−1 cm^−1 | 3,000 1 mol^−1 cm^−1 | – | – | – | – | – | – | CCCCCCCCCCCCCCCCOc1ccc(C2=C3C=CC(=N3)C(c3ccccc3)=c3ccc([nH]3)=CC3=NC(=CC4=CC=C2S4)C=C3)cc1 [porphyrin (8), 5-(4-hexadecyloxyphenyl)-10-(phenyl)-15,20-H-21-thiaporphryin] | approaching total cell kill | photodynamic activity | substantial cell kill | –
2 | – | – | – | – | – | 378,985 1 mol^−1 cm^−1 | 24,330 1 mol^−1 cm^−1 | 40,385 1 mol^−1 cm^−1 | 6,335 1 mol^−1 cm^−1 | 11,635 1 mol^−1 cm^−1 | 13,320 1 mol^−1 cm^−1 | CCCCCCCCCCCCCCCCOc1ccc(-c2c3nc(c(-c4ccccc4)c4ccc([nH]4)c(C#Cc4ccccn4)c4nc(c(C#Cc5ccccn5)c5ccc2s5)C=C4)C=C3)cc1 [porphyrin (10), 5-(4-hexadecyloxyphenyl)-10-(phenyl)-15,20-(2-ethynylpyridine)-21-thiaporphyrin] | approaching total cell kill | photodynamic activity | substantial cell kill | –
3 | – | – | – | – | – | – | – | – | – | – | – | C=Cc1c(C)c2cc3nc(c4c5[n-]c(cc6nc(cc1[n-]2)C(C)=C6CC)c(C)c5C(=O)[C@@H]4C(=O)OC)[C@@H](CCC(=O)OC/C=C(\C)CCC[C@H](C)CCC[C@H](C)CCCC(C)C)[C@@H]3C.[Mg+2] [chlorophyll A] | – | – | – | 0.6
